According to patent US9566312B2, “Cyclic peptides and use as medicines” (priority 2012, dated 2017):
Read-outs that look alike come from different tables or passages of the source. Starred links: 1 amine or outer side, 2 acyl side, 3 side chain; linkers in the order of their positions; H or OH if unused. Non-standard residues stand in square brackets, D forms with d. Residues, ends and D or L forms follow the SMILES beside them. NMeAbu(3S-Me,4-OC2H4Mor) = CN[C@H](C(=O)O)[C@H](C)COCCN1CCOCC1; X16 = C[C@H](CN1CCN(S(C)(=O)=O)CC1)[C@@H](C(=O)[*:2])N(C)[*:1]; X5 = C[C@H](COC(=O)N1CCN(C)CC1)[C@@H](C(=O)[*:2])N(C)[*:1]; X4 = C[C@H](CS(C)(=O)=O)[C@@H](C(=O)[*:2])N(C)[*:1]; X3 = C[C@H](CN1CCOCC1)[C@@H](C(=O)[*:2])N(C)[*:1]; MeBmt = C/C=C/C[C@@H](C)[C@@H](O)[C@H](NC)C(=O)O; X2 = COCC[C@@H](C)[C@@H](C(=O)[*:2])N(C)[*:1]; X77 = COC[C@H](C)[C@@H](C(=O)[*:2])N(C)[*:1]; NMeL = CN[C@@H](CC(C)C)C(=O)O; NMeV = CN[C@H](C(=O)O)C(C)C; dNMeA = CN[C@H](C)C(=O)O; Abu = CC[C@H](N)C(=O)O

Assays:
cyclophilin A (CypA) = cyclophilin A (CypA) (Homo sapiens (Human), UniProt P62937); assay: Inhibitor binding to cyclophilin proteins by SPR, CypA; parameters: unit not given here; details: 1:1 binding model;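 also: Single-cycle kinetics on a Biacore T200, compound injected at several concentrations for 1 min each at 50 µL/min, then 10 min dissociation, in HEPES pH 7.4 buffer with 3% DMSO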
Chain of cyclophilin A (CypA) (P62937 whole entry): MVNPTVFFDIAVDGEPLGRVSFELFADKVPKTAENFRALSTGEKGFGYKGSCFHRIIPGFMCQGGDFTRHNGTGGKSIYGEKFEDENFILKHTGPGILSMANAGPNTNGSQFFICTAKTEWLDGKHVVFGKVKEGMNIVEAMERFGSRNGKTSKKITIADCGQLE

cyclophilin B (CypB) = cyclophilin B (CypB) (Homo sapiens (Human), UniProt P23284); assay: Inhibitor binding to cyclophilin proteins by SPR, CypB; parameters: unit not given here; details: 1:1 binding model
Chain of cyclophilin B (CypB) (P23284 34-216): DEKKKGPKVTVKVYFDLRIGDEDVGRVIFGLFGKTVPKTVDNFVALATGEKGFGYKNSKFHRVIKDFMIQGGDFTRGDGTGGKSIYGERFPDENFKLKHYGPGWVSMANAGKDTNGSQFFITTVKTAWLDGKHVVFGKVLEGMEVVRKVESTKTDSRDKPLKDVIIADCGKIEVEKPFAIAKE
Method in brief: (§1)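 SPR, single-cycle kinetics. Avi-tagged, mono-biotinylated protein on Biotin CAPture chip; running buffer 10 mM HEPES pH 7.4, 150 mM NaCl, 0.05% P20, 3% DMSO. 1 min contacts at 50 μL/min, 10 min dissociation. kon/koff/KD from 1:1 fit.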

CypF = CypF (Homo sapiens (Human), UniProt P30405); assay: Inhibitor binding to cyclophilin proteins by SPR, CypF; details: 1:1 binding model
Chain of CypF (P30405 30-207): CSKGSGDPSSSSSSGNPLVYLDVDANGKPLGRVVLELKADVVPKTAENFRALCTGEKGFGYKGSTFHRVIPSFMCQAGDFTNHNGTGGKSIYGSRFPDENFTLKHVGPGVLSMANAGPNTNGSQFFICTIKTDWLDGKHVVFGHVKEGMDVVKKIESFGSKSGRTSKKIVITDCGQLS
Method in brief: as §1

[1] = test system: genotype 1b subgenomic HCV replicon in Huh7.5 cells; format: cell-based, hepatitis C virus; details: read-out: RPLN-1b IC50
Method in brief: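 Replicon inhibition read as renilla luciferase signal versus DMSO controls after 72 h incubation, in Huh7.5 cells harbouring a genotype 1b subgenomic replicon; medium phenol red-free DMEM lacking G418. CC50 determined in parallel via Cell Titer-Glo.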

[2] = test system: peripheral blood mononuclear cells (PBMC); assay: Anti-proliferative or immunosuppressive activity, BrdU incorporation in PHA-stimulated PBMC; format: cell-based; details: PHA 3 μg/ml, 60 hour compound treatment; read-out: EMV PBMC IC50
Method in brief: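 BrdU ELISA read-out of DNA synthesis in freshly isolated PBMCs (two donors, 30,000 cells/well, X-VIVO 15). T-cell proliferation triggered with phytohemagglutinin at 3 μg/ml.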

Human MRP2 = Human MRP2 (Homo sapiens (Human), UniProt Q92887); assay: MRP2 transporter vesicle assay; format: in vitro ADME
Chain of Human MRP2 (Q92887 whole entry): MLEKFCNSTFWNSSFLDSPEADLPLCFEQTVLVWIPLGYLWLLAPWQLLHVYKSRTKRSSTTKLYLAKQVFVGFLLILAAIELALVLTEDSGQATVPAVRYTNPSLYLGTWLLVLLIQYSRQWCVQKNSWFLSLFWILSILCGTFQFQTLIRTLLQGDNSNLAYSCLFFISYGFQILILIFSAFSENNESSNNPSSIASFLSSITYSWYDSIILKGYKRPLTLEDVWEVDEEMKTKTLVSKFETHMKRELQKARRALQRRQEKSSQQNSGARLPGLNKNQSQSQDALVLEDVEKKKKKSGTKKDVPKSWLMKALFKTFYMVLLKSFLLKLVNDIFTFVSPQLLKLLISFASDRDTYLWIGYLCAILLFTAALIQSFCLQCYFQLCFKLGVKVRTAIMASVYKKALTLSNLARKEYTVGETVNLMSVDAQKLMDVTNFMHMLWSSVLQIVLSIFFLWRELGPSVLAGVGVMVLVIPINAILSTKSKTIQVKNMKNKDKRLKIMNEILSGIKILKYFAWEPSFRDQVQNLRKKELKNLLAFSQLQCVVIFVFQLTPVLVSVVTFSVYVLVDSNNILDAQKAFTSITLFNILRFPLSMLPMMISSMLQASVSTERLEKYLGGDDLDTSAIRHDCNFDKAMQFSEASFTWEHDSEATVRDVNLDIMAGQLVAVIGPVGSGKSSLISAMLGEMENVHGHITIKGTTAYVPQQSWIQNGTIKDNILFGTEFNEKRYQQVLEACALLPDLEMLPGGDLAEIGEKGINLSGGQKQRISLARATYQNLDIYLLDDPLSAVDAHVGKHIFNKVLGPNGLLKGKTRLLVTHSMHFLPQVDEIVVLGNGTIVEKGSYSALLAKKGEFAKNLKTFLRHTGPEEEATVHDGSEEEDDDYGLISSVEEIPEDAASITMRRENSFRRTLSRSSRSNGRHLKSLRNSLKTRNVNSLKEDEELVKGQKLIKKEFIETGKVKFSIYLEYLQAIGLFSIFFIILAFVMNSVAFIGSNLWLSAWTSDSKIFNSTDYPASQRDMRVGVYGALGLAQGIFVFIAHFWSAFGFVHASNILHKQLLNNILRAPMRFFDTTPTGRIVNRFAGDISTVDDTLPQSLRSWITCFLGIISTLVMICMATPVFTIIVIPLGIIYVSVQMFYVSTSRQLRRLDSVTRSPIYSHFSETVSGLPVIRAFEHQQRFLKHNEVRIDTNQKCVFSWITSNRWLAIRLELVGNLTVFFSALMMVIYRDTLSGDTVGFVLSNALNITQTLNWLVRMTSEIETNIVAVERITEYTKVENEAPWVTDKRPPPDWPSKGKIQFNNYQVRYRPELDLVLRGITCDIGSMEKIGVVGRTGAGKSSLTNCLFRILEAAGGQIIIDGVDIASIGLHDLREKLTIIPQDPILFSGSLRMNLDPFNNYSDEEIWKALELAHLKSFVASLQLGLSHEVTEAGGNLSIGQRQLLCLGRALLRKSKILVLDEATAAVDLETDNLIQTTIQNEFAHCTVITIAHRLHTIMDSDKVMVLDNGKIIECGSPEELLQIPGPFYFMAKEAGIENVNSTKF
Procedure: Method 4: Measuring Hepatic Transporter Interactions […] […] MRP2 Assay: Human MRP2 inhibition was tested using a BD Gentest Transporter Vesicle Assay Kit. Inside-out vesicles were prepared from insect Sf9 cells infected with baculovirus expressing hMRP2. […] The percent remaining of ATP dependent uptake activity was calculated as uptake activity in the presence of inhibitor divided by the uptake activity in the absence of inhibitor.

[3] = molecular target: organic anion transporting polypeptide 1B1 (OATP1B1) (Homo sapiens (Human), UniProt Q9Y6L6); assay: OATP assay in CHO-OATP1B1 cells;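 also: inhibition of probe substrate uptake into the cells, ten minutes exposure, accumulated substrate read by fluorescence once cells were lysed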
Chain of organic anion transporting polypeptide 1B1 (OATP1B1) (Q9Y6L6 whole entry): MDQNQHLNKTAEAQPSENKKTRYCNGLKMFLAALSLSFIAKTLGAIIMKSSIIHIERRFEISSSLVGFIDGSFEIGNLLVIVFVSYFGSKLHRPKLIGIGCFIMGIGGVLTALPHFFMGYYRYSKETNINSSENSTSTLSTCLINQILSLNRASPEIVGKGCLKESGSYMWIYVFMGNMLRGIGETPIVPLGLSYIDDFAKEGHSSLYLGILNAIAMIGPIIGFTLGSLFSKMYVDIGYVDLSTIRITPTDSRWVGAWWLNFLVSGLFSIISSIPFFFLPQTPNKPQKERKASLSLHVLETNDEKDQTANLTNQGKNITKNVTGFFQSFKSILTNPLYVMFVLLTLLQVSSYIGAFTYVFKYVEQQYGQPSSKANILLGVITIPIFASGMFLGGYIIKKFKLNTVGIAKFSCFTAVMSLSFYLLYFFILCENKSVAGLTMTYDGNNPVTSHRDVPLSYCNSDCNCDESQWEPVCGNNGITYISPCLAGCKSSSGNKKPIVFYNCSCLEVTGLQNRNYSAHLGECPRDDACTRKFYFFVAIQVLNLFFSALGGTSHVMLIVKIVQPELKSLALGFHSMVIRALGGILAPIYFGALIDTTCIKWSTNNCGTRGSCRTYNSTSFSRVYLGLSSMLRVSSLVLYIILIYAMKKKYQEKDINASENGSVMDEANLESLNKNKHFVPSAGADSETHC

CYP3A4 = CYP3A4 (Homo sapiens (Human), UniProt P08684); assay: Time-dependent inhibition of CYP3A4;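 also: Two-step in vitro assay, kobs derived from residual CYP3A4 activity versus preincubation time per concentration, then kinact and KI by nonlinear fit of kobs against concentration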
Chain of CYP3A4 (P08684 whole entry): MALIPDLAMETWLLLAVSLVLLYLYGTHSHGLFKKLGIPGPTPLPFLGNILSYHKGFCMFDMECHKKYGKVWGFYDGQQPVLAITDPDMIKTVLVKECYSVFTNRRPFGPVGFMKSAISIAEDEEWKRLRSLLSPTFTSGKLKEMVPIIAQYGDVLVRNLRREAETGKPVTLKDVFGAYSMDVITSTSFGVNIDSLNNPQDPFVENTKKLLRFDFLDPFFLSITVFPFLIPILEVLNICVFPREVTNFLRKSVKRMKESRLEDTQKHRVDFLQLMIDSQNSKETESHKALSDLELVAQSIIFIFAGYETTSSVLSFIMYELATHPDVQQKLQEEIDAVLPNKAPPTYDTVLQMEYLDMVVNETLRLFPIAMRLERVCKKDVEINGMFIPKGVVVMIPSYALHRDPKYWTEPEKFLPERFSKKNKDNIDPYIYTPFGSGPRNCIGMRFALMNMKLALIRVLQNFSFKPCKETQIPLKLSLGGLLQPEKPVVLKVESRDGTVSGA

HBV in HepG2215 cells = details: cited from earlier work
[4] = genotype 1b replicon, 72 h incubation

C/C=C/C[C@@H](C)[C@@H](O)[C@H]1C(=O)N[C@@H](CC)C(=O)N(C)[C@H](C)C(=O)N(C)[C@@H]([C@H](C)CS(C)(=O)=O)C(=O)N[C@@H](C(C)C)C(=O)N(C)[C@@H](CC(C)C)C(=O)N[C@@H](C)C(=O)N[C@H](C)C(=O)N(C)[C@@H](CC(C)C)C(=O)N(C)[C@@H](CC(C)C)C(=O)N(C)[C@@H](C(C)C)C(=O)N1C [Compound 2.4, 3-[D-Ala]-4-[(2S,3S)-3-methyl-2-(methylamino)-4-(methylsulfonyl)butanoyl]-cyclosporin] (cyclo(A[dA][NMeL][NMeL][NMeV][MeBmt][Abu][dNMeA][X4]V[NMeL]))
CypA Kd (cyclophilin A (CypA)): 1.5
CypB Kd (cyclophilin B (CypB)): 0.6
CypF Kd (CypF): 0.0006 µM
IC50 [1, 4]: 0.095 µM
IC50 [2]: 1.9 µM
IC50 (Human MRP2): 9 µM
IC50 [3]: 1.4 µM
Ki (CYP3A4): > 50 µM

C/C=C/C[C@@H](C)[C@@H](O)[C@H]1C(=O)N[C@@H](CC)C(=O)N(C)CC(=O)N(C)[C@@H]([C@@H](C)CC)C(=O)N[C@@H](C(C)C)C(=O)N(C)[C@@H](CC(C)C)C(=O)N[C@@H](C)C(=O)N[C@H](C)C(=O)N(C)[C@@H](CC(C)C)C(=O)N(C)[C@@H](CC(C)C)C(=O)N(C)[C@@H](C(C)C)C(=O)N1C [NIM811]
reduction of HBsAg secretion from cells compared with controls (HBV in HepG2215 cells): about 50%

C/C=C/C[C@@H](C)[C@@H](O)[C@H]1C(=O)N[C@@H](CC)C(=O)N(C)[C@H](C)C(=O)N(C)[C@@H]([C@@H](C)COC)C(=O)N[C@@H](C(C)C)C(=O)N(C)[C@@H](CC(C)C)C(=O)N[C@@H](C)C(=O)N[C@H](C)C(=O)N(C)[C@@H](CC(C)C)C(=O)N(C)[C@@H](CC(C)C)C(=O)N(C)[C@@H](C(C)C)C(=O)N1C [Compound 2.2, 3-[D-Ala]-4-[(2S,3R)-4-methoxy-3-methyl-2-(methylamino)butanoyl]-cyclosporin] (cyclo(A[dA][NMeL][NMeL][NMeV][MeBmt][Abu][dNMeA][X77]V[NMeL]))
CypA Kd (cyclophilin A (CypA)): 1.7
CypB Kd (cyclophilin B (CypB)): 0.8
CypF Kd (CypF): 0.0008 µM
IC50 [1]: 0.048 µM
IC50 [2]: 12.6 µM
IC50 (Human MRP2): 15 µM
IC50 [3]: 1.9 µM
NIM TDI kinact/Ki (CYP3A4; probe substrate midazolam): 5 M⁻¹ s⁻¹

C/C=C/C[C@@H](C)[C@@H](O)[C@H]1C(=O)N[C@@H](CC)C(=O)N(C)[C@H](C)C(=O)N(C)[C@@H]([C@H](C)COC)C(=O)N[C@@H](C(C)C)C(=O)N(C)[C@@H](CC(C)C)C(=O)N[C@@H](C)C(=O)N[C@H](C)C(=O)N(C)[C@@H](CC(C)C)C(=O)N(C)[C@@H](CC(C)C)C(=O)N(C)[C@@H](C(C)C)C(=O)N1C [Compound 2.1, 3-[D-Ala]-4-[(2S,3S)-4-methoxy-3-methyl-2-(methylamino)butanoyl]-cyclosporin]
CypA Kd (cyclophilin A (CypA)): 2.05
CypB Kd (cyclophilin B (CypB)): 1.45
CypF Kd (CypF): 0.0013 µM
IC50 [1, 4]: 0.029 µM
IC50 [2]: 10.6 µM
IC50 (Human MRP2): 14 µM
IC50 [3]: 5.1 µM
Ki (CYP3A4): > 50 µM

C/C=C/C[C@@H](C)[C@@H](O)[C@H]1C(=O)N[C@@H](CC)C(=O)N(C)[C@H](C)C(=O)N(C)[C@@H]([C@H](C)COCCN2CCOCC2)C(=O)N[C@@H](C(C)C)C(=O)N(C)[C@@H](CC(C)C)C(=O)N[C@@H](C)C(=O)N[C@H](C)C(=O)N(C)[C@@H](CC(C)C)C(=O)N(C)[C@@H](CC(C)C)C(=O)N(C)[C@@H](C(C)C)C(=O)N1C [Compound 2.8.1, 3-[D-Ala]-4-[(2S,3S)-3-methyl-2-(methylamino)-4-(2-morpholinoethoxy)butanoyl]-cyclosporin] (cyclo(A[dA][NMeL][NMeL][NMeV][MeBmt][Abu][dNMeA][NMeAbu(3S-Me,4-OC2H4Mor)]V[NMeL]))
CypA Kd (cyclophilin A (CypA)): 1.4
CypB Kd (cyclophilin B (CypB)): 0.7
CypF Kd (CypF): 0.0007 µM
IC50 (Human MRP2): 23 µM
IC50 [3]: 7.6 µM
Ki (CYP3A4): > 50 µM

C/C=C/C[C@@H](C)[C@@H](O)[C@H]1C(=O)N[C@@H](CC)C(=O)N(C)[C@H](C)C(=O)N(C)[C@@H]([C@H](C)COCCOC(=O)N2CCN(C)CC2)C(=O)N[C@@H](C(C)C)C(=O)N(C)[C@@H](CC(C)C)C(=O)N[C@@H](C)C(=O)N[C@H](C)C(=O)N(C)[C@@H](CC(C)C)C(=O)N(C)[C@@H](CC(C)C)C(=O)N(C)[C@@H](C(C)C)C(=O)N1C (stereo in doubt) [Compound 2.9, 3-[D-Ala]-4-[(2S,3S)-3-methyl-2-(methylamino)-4-(2-((4-methylpiperazine-1-carbonyl)oxy)ethoxy)butanoyl]-cyclosporin]
CypA Kd (cyclophilin A (CypA)): 0.9
CypB Kd (cyclophilin B (CypB)): 0.5
CypF Kd (CypF): 0.0004 µM
IC50 [1, 4]: 0.058 µM
IC50 [2]: 13.3 µM
IC50 (Human MRP2): 30 µM
IC50 [3]: 8.7 µM
Ki (CYP3A4): > 50 µM

C/C=C/C[C@@H](C)[C@@H](O)[C@H]1C(=O)N[C@@H](CC)C(=O)N(C)[C@H](C)C(=O)N(C)[C@@H]([C@H](C)CN2CCOCC2)C(=O)N[C@@H](C(C)C)C(=O)N(C)[C@@H](CC(C)C)C(=O)N[C@@H](C)C(=O)N[C@H](C)C(=O)N(C)[C@@H](CC(C)C)C(=O)N(C)[C@@H](CC(C)C)C(=O)N(C)[C@@H](C(C)C)C(=O)N1C [Compound 2.5.2, 3-[D-Ala]-4-[(2S,3R)-3-methyl-2-(methylamino)-4-morpholinobutanoyl]-cyclosporin] (cyclo(A[dA][NMeL][NMeL][NMeV][MeBmt][Abu][dNMeA][X3]V[NMeL]))
CypA Kd (cyclophilin A (CypA)): 4.3
CypB Kd (cyclophilin B (CypB)): 2.9
CypF Kd (CypF): 0.0022 µM
IC50 [1, 4]: 0.1 µM
IC50 [2]: 6.3 µM
IC50 (Human MRP2): 18 µM
IC50 [3]: 8.2 µM
Ki (CYP3A4): > 50 µM

C/C=C/C[C@@H](C)[C@@H](O)[C@H]1C(=O)N[C@@H](CC)C(=O)N(C)[C@H](C)C(=O)N(C)[C@@H]([C@H](C)CCOC)C(=O)N[C@@H](C(C)C)C(=O)N(C)[C@@H](CC(C)C)C(=O)N[C@@H](C)C(=O)N[C@H](C)C(=O)N(C)[C@@H](CC(C)C)C(=O)N(C)[C@@H](CC(C)C)C(=O)N(C)[C@@H](C(C)C)C(=O)N1C [Compound 2.13, 3-[D-Ala]-4-[(2S,3R)-5-methoxy-3-methyl-2-(methylamino)pentanoyl]-cyclosporin] (cyclo(A[dA][NMeL][NMeL][NMeV][MeBmt][Abu][dNMeA][X2]V[NMeL]))
CypA Kd (cyclophilin A (CypA)): 1.7
CypB Kd (cyclophilin B (CypB)): 0.8
CypF Kd (CypF): 0.0008 µM
IC50 [1, 4]: 0.041 µM
IC50 [2]: 2.6 µM
IC50 (Human MRP2): 13 µM
IC50 [3]: 2.3 µM
Ki (CYP3A4): > 50 µM

C/C=C/C[C@@H](C)[C@@H](O)[C@H]1C(=O)N[C@@H](CC)C(=O)N(C)[C@H](C)C(=O)N(CC)[C@@H](C(C)C)C(=O)N[C@@H](C(C)C)C(=O)N(C)[C@@H](CC(C)C)C(=O)N[C@@H](C)C(=O)N[C@H](C)C(=O)N(C)[C@@H](CC(C)C)C(=O)N(C)[C@@H](CC(C)C)C(=O)N(C)[C@@H](C(C)C)C(=O)N1C [alisporivir]
reduction in intracellular HBV DNA levels (HBV in HepG2215 cells; 5.0 mcg/mL, 72 hours): 10 fold
reduction of HBsAg secretion from cells compared with controls (HBV in HepG2215 cells): about 50%

C/C=C/C[C@@H](C)[C@@H](O)[C@H]1C(=O)N[C@@H](CC)C(=O)N(C)[C@H](C)C(=O)N(C)[C@@H]([C@H](C)COC(=O)N2CCN(C)CC2)C(=O)N[C@@H](C(C)C)C(=O)N(C)[C@@H](CC(C)C)C(=O)N[C@@H](C)C(=O)N[C@H](C)C(=O)N(C)[C@@H](CC(C)C)C(=O)N(C)[C@@H](CC(C)C)C(=O)N(C)[C@@H](C(C)C)C(=O)N1C [Compound 2.5.9, 3-[D-Ala]-4-[(2S,3S)-3-methyl-2-(methylamino)-4-((4-methylpiperazine-1-carbonyl)oxy)butanoyl]-cyclosporin] (cyclo(A[dA][NMeL][NMeL][NMeV][MeBmt][Abu][dNMeA][X5]V[NMeL]))
CypA Kd (cyclophilin A (CypA)): 0.8
CypB Kd (cyclophilin B (CypB)): 0.5
CypF Kd (CypF): 0.0003 µM
IC50 [1, 4]: 0.09 µM
IC50 [2]: 17.7 µM
IC50 (Human MRP2): 21 µM
IC50 [3]: 6.7 µM
Ki (CYP3A4): > 50 µM

C/C=C/C[C@@H](C)[C@@H](O)[C@H]1C(=O)N[C@@H](CC)C(=O)N(C)[C@H](C)C(=O)N(C)[C@@H]([C@H](C)CN2CCN(S(C)(=O)=O)CC2)C(=O)N[C@@H](C(C)C)C(=O)N(C)[C@@H](CC(C)C)C(=O)N[C@@H](C)C(=O)N[C@H](C)C(=O)N(C)[C@@H](CC(C)C)C(=O)N(C)[C@@H](CC(C)C)C(=O)N(C)[C@@H](C(C)C)C(=O)N1C [Compound 2.5.5, 3-[D-Ala]-4-[(2S,3R)-3-methyl-2-(methylamino)-4-(4-(methylsulfonyl)piperazin-1-yl)butanoyl]-cyclosporin] (cyclo(A[dA][NMeL][NMeL][NMeV][MeBmt][Abu][dNMeA][X16]V[NMeL]))
CypA Kd (cyclophilin A (CypA)): 3.3
CypB Kd (cyclophilin B (CypB)): 1.9
CypF Kd (CypF): 0.0017 µM
IC50 [1, 4]: 0.066 µM
IC50 [2]: 2.8 µM
IC50 (Human MRP2): 13 µM
IC50 [3]: 4.8 µM
